Measured values as given in article PMC7529893, “Structural basis for substrate recognition and chemical inhibition of oncogenic MAGE ubiquitin ligases” (Nature Communications, 2020).
Peptide text beside a SMILES is read from it.

T1: GST-MAGE-A11 MHD (Homo sapiens, UniProt P43364)
T1 construct: GST-MAGE-A11 MHD (human MAGE-A11 MHD amino acid 218-429); made in house; host or cells: E. coli BL21(DE3)
T1 sequence (P43364 218-429): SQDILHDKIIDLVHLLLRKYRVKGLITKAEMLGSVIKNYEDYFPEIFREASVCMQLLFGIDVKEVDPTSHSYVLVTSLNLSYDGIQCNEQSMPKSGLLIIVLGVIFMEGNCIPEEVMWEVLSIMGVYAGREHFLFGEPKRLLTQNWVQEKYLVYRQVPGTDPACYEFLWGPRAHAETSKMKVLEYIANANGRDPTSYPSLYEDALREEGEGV

T2: GST-MAGE-A11 MHD (human MAGE-A11 MHD amino acid 218-429) (human, UniProt P43364 218-429)
T2 chain: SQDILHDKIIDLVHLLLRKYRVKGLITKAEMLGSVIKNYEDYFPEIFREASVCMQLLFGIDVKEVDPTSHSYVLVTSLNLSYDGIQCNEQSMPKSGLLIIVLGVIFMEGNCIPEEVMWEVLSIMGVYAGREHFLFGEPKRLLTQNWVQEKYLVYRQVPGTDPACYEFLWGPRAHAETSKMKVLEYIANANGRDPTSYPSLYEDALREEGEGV

T3: GST-MAGE-A11 MHD (human MAGE-A11 MHD amino acid 218-429) (human, UniProt P43364 218-429)
T3 construct: also called recombinant GST-MAGE-A11; source: E. coli BL21(DE3), purified (GSTrap, Resource Q)
T3 sequence (looked up): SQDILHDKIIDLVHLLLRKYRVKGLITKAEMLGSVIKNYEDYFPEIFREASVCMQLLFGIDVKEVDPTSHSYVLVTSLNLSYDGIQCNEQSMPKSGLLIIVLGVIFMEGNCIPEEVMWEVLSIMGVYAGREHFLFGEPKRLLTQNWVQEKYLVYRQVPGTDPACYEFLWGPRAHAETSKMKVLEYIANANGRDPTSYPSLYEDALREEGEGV


These molecules were tested against T1, GST-MAGE-A11 MHD (assay: TR-FRET competition assay of PCF11 peptides against GST-MAGE-A11 MHD / FAM-PCF11_4). Conditions: Fig. 1c, panel of eight PCF11 peptides; read-out: IC50, binding of PCF11 peptide to GST-MAGE-A11 by TR-FRET.
Procedure: The TR-FRET assay buffer with a formula of 50 mM Tris pH 7.5, 20 mM MgCl2, 0.1 mg/ml BSA and 1 mM DTT was freshly prepared before each experiment. All TR-FRET assays were performed in black 384-well plates with 20 µl/well assay volume in the TR-FRET assay buffer at room temperature (~25 °C). All peptides or compounds were solubilized in DMSO. To test the competitive activity of peptides or compounds against the interaction between GST-MAGE-A11 MHD and FAM-PCF11_4 peptide, 10 µl/well peptide or compound at specified concentration was dispensed into a black 384-well low volume plate, followed by 5 µl/well FAM-PCF11_4 (800 nM), 5 µl/well Tb-anti-GST (20 nM), and GST-MAGE-A11 MHD (20 nM). The assay components in each well was then mixed by shaking the plate on an IKA MTS 2/4 digital microtiter plate shaker (IKA Works; Wilmington, NC, USA) for 1 min. The plate was further centrifuged in an Eppendorf 5810 centrifuge with an A-4-62 swing-bucket rotor (Eppendorf AG, Hamburg, Germany) at 201 g for 30 s. The plate was then incubated for 90 min with a lid to avoid light exposure to the assay components. After incubation, the fluorescent emission signals at 520 nm and 490 nm channels of individual wells were measured with a PHERAstar FS plate reader (BMG Labtech; Durham, NC, USA) by using a 340 nm excitation filter, 100 µs delay time, and 200 µs integration time. The TR-FRET fluorescence emission ratio (TR-FRET signal) for each well was presented as 10,000 × 520 nm/490 nm, which was used directly for curve fitting, or further converted to %Inhibition based on the respective positive and negative controls. The graphic software GraphPad Prism 4.81 (GraphPad Software; La Jolla, CA, USA) was used to generate curves and derive IC50 values of tested peptides or compounds, if applicable.
TR-FRET inhibitory activity characterization of a panel of PCF11 peptides against the interaction between GST-MAGE-A11 MHD and FAM-PCF11_4 was performed as follows. In a 20-µl/well assay volume, dilutions of PCF11_1 to PCF11_8 peptides (concentrations ranged from 3.1 nM to 100 µM for peptides PCF11_4, PCF11_5, PCF11_6 and PCF11_8 in a 1-to-2 dilution pattern for 16 concentration levels, and ranged from 48.9 nM to 100 µM for peptides of PCF11_1, PCF11_2, PCF11_3, and PCF11_7 in a 1-to-2 dilution pattern for 12 concentration levels), 200 nM FAM-PCF11_4, 5 nM Tb-anti-GST and 5 nM GST-MAGE-A11 were mixed together and incubated for 90 min before the TR-FRET signal for each well was measured. The final DMSO concentration was 1.1% (v/v). […] The signal of each peptide-treated well (Signalpeptide) was normalized to the positive and negative controls to derive %inhibition of the peptide at a specific concentration with Eq. (1). Where applicable, the %Inhibition data were fit into a Sigmoidal dose response equation to derive IC50 values.1 %Inhibition=100%−100%×(Signalpeptide−SignalDMSOwithoutGST-MAGEA11)/SignalDMSO−SignalDMSOwithoutGST-MAGEA11.

Molecule	IC50 [nM]
CC[C@H](C)[C@H](NC(=O)[C@H](CCC(=O)O)NC(=O)CNC(=O)[C@H](CO)NC(=O)[C@H](C)NC(=O)[C@H](CC(C)C)NC(=O)[C@H](CCCNC(=N)N)NC(=O)[C@H](CCC(=O)O)NC(=O)[C@H](CO)NC(=O)[C@@H](NC(=O)[C@H](CCCCN)NC(=O)[C@H](CCC(N)=O)NC(=O)[C@H](CC(C)C)NC(=O)[C@@H](N)CC(C)C)[C@@H](C)O)C(=O)N[C@H](C(=O)O)[C@@H](C)O [PCF11_2] (H-LLQKTSERLASGEIT-OH; N-terminus assumed)	> 50000
CC[C@H](C)[C@H](NC(=O)[C@H](CCC(N)=O)NC(=O)[C@H](Cc1c[nH]cn1)NC(=O)[C@@H](N)C(C)C)C(=O)N[C@@H](CCCNC(=N)N)C(=O)N[C@@H](CCC(N)=O)C(=O)N[C@@H](CC(C)C)C(=O)N[C@@H](Cc1ccccc1)C(=O)N[C@@H](CCC(N)=O)C(=O)N[C@@H](Cc1ccc(O)cc1)C(=O)N[C@@H](CCC(N)=O)C(=O)N[C@@H](CCC(=O)O)C(=O)NCC(=O)N[C@H](C(=O)N[C@@H](CCCNC(=N)N)C(=O)O)C(C)C [PCF11_7] (H-VHQIRQLFQYQEGVR-OH; N-terminus assumed)	> 50000
CC(C)C[C@H](NC(=O)[C@H](CC(C)C)NC(=O)[C@H](CCC(=O)O)NC(=O)[C@H](CCCNC(=N)N)NC(=O)[C@H](CCCCN)NC(=O)[C@H](CO)NC(=O)[C@H](C)NC(=O)[C@H](CC(C)C)NC(=O)[C@@H](NC(=O)[C@H](CC(C)C)NC(=O)[C@H](CCC(=O)O)NC(=O)[C@H](CCCCN)NC(=O)[C@@H]1CCCN1)[C@@H](C)O)C(=O)N[C@@H](CCC(N)=O)C(=O)N[C@@H](CCCCN)C(=O)O [PCF11_1] (H-PKELTLASKRELLQK-OH; N-terminus assumed)	> 50000
CC[C@H](C)[C@H](NC(=O)[C@H](CCC(N)=O)NC(=O)[C@H](Cc1c[nH]cn1)NC(=O)[C@@H](NC(=O)[C@@H](NC(=O)[C@@H](NC(=O)[C@H](CC(C)C)NC(=O)[C@H](Cc1ccccc1)NC(=O)[C@H](CC(=O)O)NC(=O)[C@H](CC(=O)O)NC(=O)[C@H](CCC(N)=O)NC(=O)[C@@H](NC(=O)[C@@H](NC(=O)[C@H](CCC(=O)O)NC(=O)CN)[C@@H](C)CC)[C@@H](C)O)C(C)C)C(C)C)C(C)C)C(=O)O [PCF11_3] (H-GEITQDDFLVVVHQI-OH; N-terminus assumed)	> 50000
CC[C@H](C)[C@H](NC(=O)[C@H](CCC(N)=O)NC(=O)[C@H](Cc1c[nH]cn1)NC(=O)[C@@H](N)C(C)C)C(=O)N[C@@H](CCCNC(=N)N)C(=O)N[C@@H](CCC(N)=O)C(=O)N[C@@H](CC(C)C)C(=O)N[C@@H](Cc1ccccc1)C(=O)N[C@@H](CCC(N)=O)C(=O)N[C@@H](Cc1ccc(O)cc1)C(=O)N[C@@H](CCC(N)=O)C(=O)N[C@@H](CCC(=O)O)C(=O)NCC(=O)N[C@H](C(=O)N[C@@H](CCCNC(=N)N)C(=O)N[C@@H](CCC(=O)O)C(=O)N[C@@H](CCC(=O)O)C(=O)N[C@@H](CCC(N)=O)C(=O)N[C@@H](CCCNC(=N)N)C(=O)N[C@@H](CO)C(=O)O)C(C)C [PCF11_8] (H-VHQIRQLFQYQEGVREEQRS-OH; N-terminus assumed)	> 50000
CC[C@H](C)[C@H](NC(=O)[C@H](CCC(N)=O)NC(=O)[C@H](Cc1c[nH]cn1)NC(=O)[C@@H](NC(=O)[C@@H](NC(=O)[C@@H](NC(=O)[C@H](CC(C)C)NC(=O)[C@H](Cc1ccccc1)NC(=O)[C@H](CC(=O)O)NC(=O)[C@H](CC(=O)O)NC(=O)[C@@H](N)CCC(N)=O)C(C)C)C(C)C)C(C)C)C(=O)N[C@@H](CCCNC(=N)N)C(=O)N[C@@H](CCC(N)=O)C(=O)N[C@@H](CC(C)C)C(=O)N[C@@H](Cc1ccccc1)C(=O)N[C@@H](CCC(N)=O)C(=O)N[C@@H](Cc1ccc(O)cc1)C(=O)N[C@@H](CCC(N)=O)C(=O)N[C@@H](CCC(=O)O)C(=O)NCC(=O)O [PCF11_5] (H-QDDFLVVVHQIRQLFQYQEG-OH; N-terminus assumed)	77
CC[C@H](C)[C@H](N)C(=O)N[C@H](C(=O)N[C@@H](CCC(N)=O)C(=O)N[C@@H](CC(=O)O)C(=O)N[C@@H](CC(=O)O)C(=O)N[C@@H](Cc1ccccc1)C(=O)N[C@@H](CC(C)C)C(=O)N[C@H](C(=O)N[C@H](C(=O)N[C@H](C(=O)N[C@@H](Cc1c[nH]cn1)C(=O)N[C@@H](CCC(N)=O)C(=O)N[C@H](C(=O)N[C@@H](CCCNC(=N)N)C(=O)N[C@@H](CCC(N)=O)C(=O)N[C@@H](CC(C)C)C(=O)N[C@@H](Cc1ccccc1)C(=O)N[C@@H](CCC(N)=O)C(=O)N[C@@H](Cc1ccc(O)cc1)C(=O)N[C@@H](CCC(N)=O)C(=O)N[C@@H](CCC(=O)O)C(=O)NCC(=O)N[C@H](C(=O)N[C@@H](CCCNC(=N)N)C(=O)N[C@@H](CCC(=O)O)C(=O)O)C(C)C)[C@@H](C)CC)C(C)C)C(C)C)C(C)C)[C@@H](C)O [PCF11_4] (H-ITQDDFLVVVHQIRQLFQYQEGVRE-OH; N-terminus assumed)	59

Molecular target: T2, GST-MAGE-A11 MHD (human MAGE-A11 MHD …)
Assay: FRET
Conditions: not given

Molecule	IC50 [nM]
FLVVVHQIRQLFQ (PCF11 degron, human; position +1 is F682 and position +12 is F693; also called model 13 amino acid PCF11 peptide degron; natural PCF11 degron peptide; source: synthetic peptide) [PCF11 peptide (FLVVVHQIRQLFQ) containing phenylalanine at position 12]	60.4

What follows are molecules tested against T3, GST-MAGE-A11 MHD (human MAGE-A11 MHD …) (assay: AlphaScreen or HTRF; TR-FRET competition: unlabelled peptide titrated against 200 nM FAM-PCF11_4, 5 nM Tb-anti-GST and 5 nM GST-MAGE-A11 MHD; 50 mM Tris pH 7.5, 20 mM MgCl2, 0.1 mg/ml BSA, 1 mM DTT; room temperature (~25 °C), 90 min). Conditions: both partners purified.

Molecule	binding result
FLVVVHQIRQLFQ (PCF11 degron, human; position +1 is F682 and position +12 is F693; also called model 13 amino acid PCF11 peptide degron; natural PCF11 degron peptide; source: synthetic peptide) [PCF11 peptide (FLVVVHQIRQLFQ) containing phenylalanine at position 12]	binds
